ChEMBL document CHEMBL3608278 (J Med Chem, 2015)
pIC50: −log10 of the molar value.

Experiments:
[1] = target: T1, Potassium voltage-gated channel subfamily A member 3 (Homo sapiens, UniProt P22001); test: cell-based; parameters: species or system Blood
[2] = target: T1, Potassium voltage-gated channel subfamily A member 3; assay type: cell-based, CHO-K1
[3] = target: T1, Potassium voltage-gated channel subfamily A member 3; parameters: species or system Blood

T1 sequence (P22001 whole entry): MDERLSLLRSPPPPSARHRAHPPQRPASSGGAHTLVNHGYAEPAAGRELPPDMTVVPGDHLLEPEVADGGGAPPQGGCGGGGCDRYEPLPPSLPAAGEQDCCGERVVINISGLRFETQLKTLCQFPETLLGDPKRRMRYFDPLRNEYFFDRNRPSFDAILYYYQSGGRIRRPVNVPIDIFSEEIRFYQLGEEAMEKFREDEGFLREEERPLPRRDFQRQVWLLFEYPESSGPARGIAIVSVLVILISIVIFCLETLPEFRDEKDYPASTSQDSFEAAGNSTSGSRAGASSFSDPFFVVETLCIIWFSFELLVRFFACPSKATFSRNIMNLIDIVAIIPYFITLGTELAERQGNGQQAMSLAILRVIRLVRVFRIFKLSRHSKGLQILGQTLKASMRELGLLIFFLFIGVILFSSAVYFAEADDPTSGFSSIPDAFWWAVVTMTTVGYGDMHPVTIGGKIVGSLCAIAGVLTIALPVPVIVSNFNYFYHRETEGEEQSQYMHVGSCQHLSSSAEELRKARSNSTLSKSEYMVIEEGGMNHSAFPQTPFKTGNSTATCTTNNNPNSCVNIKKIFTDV

SMILES | pIC50 [1] | pIC50 [2] | pIC50 [3]
CC[C@H](C)[C@@H]1NC(=O)[C@@H](NC(=O)[C@H](CO)NC(=O)[C@@H](N)CCCNC(=N)N)CSSC[C@@H](C(=O)O)NC(=O)[C@H]([C@@H](C)O)NC(=O)CNC(=O)[C@@H]2CSSC[C@@H]3NC(=O)[C@H](CCC(N)=O)NC(=O)[C@H](Cc4ccccc4)NC(=O)[C@H](C)NC(=O)[C@H]([C@@H](C)O)NC(=O)[C@H](CSSC[C@H](NC(=O)[C@H](Cc4ccccc4)NC(=O)[C@H](CO)NC(=O)[C@H](CC(C)C)NC(=O)[C@H](CCCNC(=N)N)NC(=O)[C@H](Cc4ccc(O)cc4)NC(=O)[C@H](CCCCN)NC(=O)[C@H](CCSC)NC(=O)[C@H](CO)NC(=O)[C@H](Cc4cnc[nH]4)NC(=O)[C@H](CCCCN)NC3=O)C(=O)N[C@@H](CCCNC(=N)N)C(=O)N[C@@H](CCCCN)C(=O)N[C@@H]([C@@H](C)O)C(=O)N2)NC(=O)[C@H](CCCNC(=N)N)NC(=O)[C@H](CO)NC(=O)[C@H](CCCCN)NC(=O)[C@@H]2CCCN2C(=O)[C@H](C)NC(=O)[C@H]([C@@H](C)O)NC(=O)[C@H](CC(=O)O)NC1=O | 9.13 | 9.70 | 8.70
CC[C@H](C)[C@@H]1NC(=O)[C@@H](NC(=O)[C@H](CO)NC(=O)[C@@H](N)CCCNC(=N)N)CSSC[C@@H](C(=O)O)NC(=O)[C@H]([C@@H](C)O)NC(=O)CNC(=O)[C@@H]2CSSC[C@@H]3NC(=O)[C@H](CCC(N)=O)NC(=O)[C@H](Cc4ccccc4)NC(=O)[C@H](C)NC(=O)[C@H]([C@@H](C)O)NC(=O)[C@H](CSSC[C@H](NC(=O)[C@H](Cc4ccccc4)NC(=O)[C@H](CO)NC(=O)[C@H](CC(C)C)NC(=O)[C@H](CCCNC(=N)N)NC(=O)[C@H](Cc4ccc(O)cc4)NC(=O)[C@H](CCCCN)NC(=O)[C@H](CCSC)NC(=O)[C@H](CO)NC(=O)[C@H](Cc4cnc[nH]4)NC(=O)[C@H](CCCCN)NC3=O)C(=O)N[C@@H](CCCNC(=N)N)C(=O)N[C@@H](CCCCN)C(=O)N[C@@H]([C@@H](C)O)C(=O)N2)NC(=O)[C@H](CCCNC(=N)N)NC(=O)[C@H](CO)NC(=O)[C@H](CCCCN)NC(=O)[C@H](C)NC(=O)[C@H]([C@@H](C)CC)NC(=O)[C@H]([C@@H](C)O)NC(=O)[C@H](CC(=O)O)NC1=O | 10.47 | 10.10 | 10.18
CC[C@H](C)[C@@H]1NC(=O)[C@@H](NC(=O)[C@H](CO)NC(=O)[C@@H](N)CCCNC(=N)N)CSSC[C@@H](C(=O)O)NC(=O)[C@H]([C@@H](C)O)NC(=O)CNC(=O)[C@@H]2CSSC[C@@H]3NC(=O)[C@H](CCC(N)=O)NC(=O)[C@H](Cc4ccccc4)NC(=O)[C@H](C)NC(=O)[C@H]([C@@H](C)O)NC(=O)[C@H](CSSC[C@H](NC(=O)[C@H](Cc4ccccc4)NC(=O)[C@H](CO)NC(=O)[C@H](CC(C)C)NC(=O)[C@H](CCCNC(=N)N)NC(=O)[C@H](Cc4ccc(O)cc4)NC(=O)[C@H](CCCCN)NC(=O)[C@H](CCSC)NC(=O)[C@H](CO)NC(=O)[C@H](Cc4cnc[nH]4)NC(=O)[C@H](CCCCN)NC3=O)C(=O)N[C@@H](CCCNC(=N)N)C(=O)N[C@@H](CCCCN)C(=O)N[C@@H]([C@@H](C)O)C(=O)N2)NC(=O)[C@H](CCCNC(=N)N)NC(=O)[C@H](CO)NC(=O)[C@H](C)NC(=O)[C@@H]2CCCN2C(=O)[C@H]([C@@H](C)CC)NC(=O)[C@H]([C@@H](C)O)NC(=O)[C@H](CC(=O)O)NC1=O | 10.35 | 9.92 | 10.09
CC[C@H](C)[C@@H]1NC(=O)[C@@H](NC(=O)[C@H](CO)NC(=O)[C@@H](N)CCCNC(=N)N)CSSC[C@@H](C(=O)O)NC(=O)[C@H]([C@@H](C)O)NC(=O)CNC(=O)[C@@H]2CSSC[C@@H]3NC(=O)[C@H](CCC(N)=O)NC(=O)[C@H](Cc4ccccc4)NC(=O)[C@H](C)NC(=O)[C@H]([C@@H](C)O)NC(=O)[C@H](CSSC[C@H](NC(=O)[C@H](Cc4ccccc4)NC(=O)[C@H](CO)NC(=O)[C@H](CC(C)C)NC(=O)[C@H](CCCNC(=N)N)NC(=O)[C@H](Cc4ccc(O)cc4)NC(=O)[C@H](CCCCN)NC(=O)[C@H](CCSC)NC(=O)[C@H](CO)NC(=O)[C@H](C)NC(=O)[C@H](CCCCN)NC3=O)C(=O)N[C@@H](CCCNC(=N)N)C(=O)N[C@@H](CCCCN)C(=O)N[C@@H]([C@@H](C)O)C(=O)N2)NC(=O)[C@H](CCCNC(=N)N)NC(=O)[C@H](CO)NC(=O)[C@H](CCCCN)NC(=O)[C@@H]2CCCN2C(=O)[C@H]([C@@H](C)CC)NC(=O)[C@H]([C@@H](C)O)NC(=O)[C@H](CC(=O)O)NC1=O | 9.52 | 9.62 | 9.25
CC[C@H](C)[C@@H]1NC(=O)[C@@H](NC(=O)[C@H](CO)NC(=O)[C@@H](N)CCCNC(=N)N)CSSC[C@@H](C(=O)O)NC(=O)[C@H]([C@@H](C)O)NC(=O)CNC(=O)[C@@H]2CSSC[C@@H]3NC(=O)[C@H](CCC(N)=O)NC(=O)[C@H](Cc4ccccc4)NC(=O)[C@H](C)NC(=O)[C@H]([C@@H](C)O)NC(=O)[C@H](CSSC[C@H](NC(=O)[C@H](Cc4ccccc4)NC(=O)[C@H](CO)NC(=O)[C@H](CC(C)C)NC(=O)[C@H](CCCNC(=N)N)NC(=O)[C@H](C)NC(=O)[C@H](CCCCN)NC(=O)[C@H](CCSC)NC(=O)[C@H](CO)NC(=O)[C@H](Cc4cnc[nH]4)NC(=O)[C@H](CCCCN)NC3=O)C(=O)N[C@@H](CCCNC(=N)N)C(=O)N[C@@H](CCCCN)C(=O)N[C@@H]([C@@H](C)O)C(=O)N2)NC(=O)[C@H](CCCNC(=N)N)NC(=O)[C@H](CO)NC(=O)[C@H](CCCCN)NC(=O)[C@@H]2CCCN2C(=O)[C@H]([C@@H](C)CC)NC(=O)[C@H]([C@@H](C)O)NC(=O)[C@H](CC(=O)O)NC1=O | 8.51 | 9.58 | 8.25
CC[C@H](C)[C@@H]1NC(=O)[C@@H](NC(=O)[C@H](CO)NC(=O)[C@@H](N)CCCNC(=N)N)CSSC[C@@H](C(=O)O)NC(=O)[C@H]([C@@H](C)O)NC(=O)CNC(=O)[C@@H]2CSSC[C@@H]3NC(=O)[C@H](CCC(N)=O)NC(=O)[C@H](Cc4ccccc4)NC(=O)[C@H](C)NC(=O)[C@H]([C@@H](C)O)NC(=O)[C@H](CSSC[C@H](NC(=O)[C@H](C)NC(=O)[C@H](CO)NC(=O)[C@H](CC(C)C)NC(=O)[C@H](CCCNC(=N)N)NC(=O)[C@H](Cc4ccc(O)cc4)NC(=O)[C@H](CCCCN)NC(=O)[C@H](CCSC)NC(=O)[C@H](CO)NC(=O)[C@H](Cc4cnc[nH]4)NC(=O)[C@H](CCCCN)NC3=O)C(=O)N[C@@H](CCCNC(=N)N)C(=O)N[C@@H](CCCCN)C(=O)N[C@@H]([C@@H](C)O)C(=O)N2)NC(=O)[C@H](CCCNC(=N)N)NC(=O)[C@H](CO)NC(=O)[C@H](CCCCN)NC(=O)[C@@H]2CCCN2C(=O)[C@H]([C@@H](C)CC)NC(=O)[C@H]([C@@H](C)O)NC(=O)[C@H](CC(=O)O)NC1=O | 8.82 | 9.56 | 8.10
